Reference: the supplement of paper PMC7108870

Experiments:
HEK293sieSTAT3(Y640F) [1] = assay: drug sensitivity score (DSS), cytotoxicity CellTox Green (DSS (dimensionless)); higher = more cytotoxic; extreme values may be limits of the assay; settings: 72 h; STAT3 variant: Y640F (constitutively active)
In short: (§1)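 A drug sensitivity score, based on the area of the dose-response curve, was calculated in Breeze after normalising values to negative and positive control wells. It came from HEK293 cells carrying a STAT3-dependent luciferase reporter and overexpressing wild-type or mutant STAT3, plated at 20 μl of 100,000 cells/ml onto compounds acoustically pre-plated at 5 concentrations in 10-fold dilutions in 384-well plates. Following 72 hours at 37°C and 5% CO2, CellTox Green fluorescence (485/520 nm) and then CellTiter-Glo luminescence were read on a PHERAstar FS.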

HEK293sieSTAT3(wt) [2] = assay: as above; settings: 72 h; STAT3 variant: wild type
In short: as §1

HEK293sieSTAT3(Y640F) [3] = assay: drug sensitivity score (DSS), viability CellTiter-Glo (DSS (dimensionless)); higher = more growth inhibition; extreme values may be limits of the assay; settings: 72 h; STAT3 variant: Y640F (constitutively active)
In short: as §1

HEK293sieSTAT3(wt) [4] = assay: as above; settings: 72 h; STAT3 variant: wild type
In short: as §1

SMILES	drug sensitivity score (HEK293sieSTAT3(Y640F) [1])	drug sensitivity score (HEK293sieSTAT3(wt) [2])	drug sensitivity score (HEK293sieSTAT3(Y640F) [3])	drug sensitivity score (HEK293sieSTAT3(wt) [4])
CN[C@@H](C)C(=O)N[C@H](C(=O)N1CCC[C@H]1c1nc(C(=O)c2ccc(F)cc2)cs1)C1CCCCC1 [LCL161] (top concentration tested 25000 nM)	26.6	45	13.7	24.6
CS(=O)(=O)CCNCc1ccc(-c2ccc3ncnc(Nc4ccc(OCc5cccc(F)c5)c(Cl)c4)c3c2)o1 [Lapatinib] (top concentration tested 1000 nM)	0	2.09	0	0
Oc1ccc2c(c1)CC[C@H](c1ccccc1)[C@@H]2c1ccc(OCCN2CCCC2)cc1 [Lasofoxifene] (top concentration tested 1000 nM)	0	0	2.47	3.21
Nc1cccc2c1CN(C1CCC(=O)NC1=O)C2=O (stereo not given) [Lenalidomide] (top concentration tested 100000 nM)	0	0	2.66	2.72
COc1cc2nccc(Oc3ccc(NC(=O)NC4CC4)c(Cl)c3)c2cc1C(N)=O [Lenvatinib] (top concentration tested 2500 nM)	0	0	2.04	2.2
C[C@]12O[C@H](C[C@]1(O)CO)n1c3ccccc3c3c4c(c5c6ccccc6n2c5c31)CNC4=O [Lestaurtinib] (top concentration tested 1000 nM)	7.22	4.55	9.27	8.27
N#Cc1ccc(C(c2ccc(C#N)cc2)n2cncn2)cc1 [Letrozole] (top concentration tested 10000 nM)	0	0.02	4.14	0.66
c1ccc([C@H]2CN3CCSC3=N2)cc1 [Levamisole] (top concentration tested 10000 nM)	0	0	0	0
Cc1ccc(F)c(NC(=O)Nc2ccc(-c3cccc4[nH]nc(N)c34)cc2)c1 [Linifanib] (top concentration tested 1000 nM)	0	0	0	0
C[C@]1(O)C[C@@H](c2nc(-c3ccc4ccc(-c5ccccc5)nc4c3)c3c(N)nccn32)C1 [Linsitinib] (top concentration tested 10000 nM)	0	0	5.71	2.31
Nc1nc(OCc2cc(Br)cs2)c2[nH]cnc2n1 [Lomeguatrib] (top concentration tested 10000 nM)	0	0.01	2.48	0.39
O=NN(CCCl)C(=O)NC1CCCCC1 [Lomustine] (top concentration tested 10000 nM)	0	0	0	0
NC(=O)N1CCC(CC(=O)N2CCC([C@H]3c4ncc(Br)cc4CCc4cc(Cl)cc(Br)c43)CC2)CC1 [Lonafarnib] (top concentration tested 10000 nM)	0.03	1.31	6.11	8.7
Cc1c(F)cc(C(=O)NC2CC2)cc1-c1ccc(C(=O)NCC(C)(C)C)cn1 [Losmapimod] (top concentration tested 10000 nM)	0	0	0.91	0
CC[C@H](C)C(=O)O[C@H]1C[C@@H](C)C=C2C=C[C@H](C)[C@H](CC[C@@H]3C[C@@H](O)CC(=O)O3)[C@H]21 [Lovastatin] (top concentration tested 10000 nM)	0	0	0	0.12
CNC(=O)c1cccc2cc(Oc3ccnc4cc(OCC5(N)CC5)c(OC)cc34)ccc12 [Lucitanib] (top concentration tested 10000 nM)	0	7.65	1.79	5.26
CCNC(=O)c1noc(-c2cc(C(C)C)c(O)cc2O)c1-c1ccc(CN2CCOCC2)cc1 [Luminespib] (top concentration tested 1000 nM)	7.6	15.9	23.7	27.8
C=CCn1c(=O)c2cnc(Nc3ccc(N4CCN(C)CC4)cc3)nc2n1-c1cccc(C(C)(C)O)n1 [MK1775] (top concentration tested 10000 nM)	10.6	16.5	20.4	19.4
O=C(O)CC[C@H]1CC[C@@](c2cc(F)ccc2F)(S(=O)(=O)c2ccc(Cl)cc2)CC1 [MK-0752] (top concentration tested 1000 nM)	0	0	1.59	0
NC1(c2ccc(-c3nc4ccn5c(=O)[nH]nc5c4cc3-c3ccccc3)cc2)CCC1 [MK-2206] (top concentration tested 1000 nM)	0	0	3.71	8.2
CN(C[C@@H]1COCCO1)S(=O)(=O)Nc1ccc2ccc3ncc(-c4cnn(C)c4)cc3c(=O)c2c1 [MK-2461] (top concentration tested 10000 nM)	0	0	3.63	3.5
O=C(c1cccc(Cl)c1F)N1CCN(Cc2cccc(Nc3nccs3)n2)CC1 [MK-8745] (top concentration tested 2500 nM)	0	1.16	0.11	3.99
Cn1cc(-c2cnn3c(N)c(Br)c([C@@H]4CCCNC4)nc23)cn1 [MK-8776] (top concentration tested 2500 nM)	1.03	3.43	5.89	6.83

SMILES	drug sensitivity score (HEK293sieSTAT3(Y640F) [1])	drug sensitivity score (HEK293sieSTAT3(wt) [2])	drug sensitivity score (HEK293sieSTAT3(Y640F) [3])	drug sensitivity score (HEK293sieSTAT3(wt) [4])
Cc1cnc(-c2ccccc2C(C)C)nc1NCc1ccc(-n2ccnn2)cc1 [ML323] (top concentration tested 10000 nM)	0	0	2.43	1.14
CC(C)n1nc(-c2ccc3oc(N)nc3c2)c2c(N)ncnc21 [MLN-0128] (top concentration tested 1000 nM)	0	1.73	15	18.7
O=C(O)c1ccc(Nc2ncc3c(n2)-c2ccc(Cl)cc2C(c2c(F)cccc2F)=NC3)cc1 [MLN-8054] (top concentration tested 10000 nM)	0	2.73	6.2	11
O=C(Nc1cccc(NC(=O)c2cccc(O)c2O)c1)c1cccc(O)c1O [MST-312] (top concentration tested 10000 nM)	1.09	6.46	6.74	13.2
CNC(=O)[C@@H](NC(=O)[C@H](CC(C)C)[C@H](O)C(=O)NO)C(C)(C)C [Marimastat] (top concentration tested 10000 nM)	0	0	1.16	1.16
Cc1ccc(NC(=O)c2ccc(CN3CCN(C)CC3)cc2)cc1Nc1nc(-c2cccnc2)cs1 [Masitinib] (top concentration tested 10000 nM)	0.7	5.99	4.59	7.57
CC(=O)O[C@]1(C(C)=O)CC[C@H]2[C@@H]3C=C(C)C4=CC(=O)CC[C@]4(C)[C@H]3CC[C@@]21C [Megestrol acetate] (top concentration tested 10000 nM)	0	0	3.65	0.97
N[C@@H](Cc1ccc(N(CCCl)CCCl)cc1)C(=O)O [Melphalan] (top concentration tested 12500 nM)	0	0	1.69	0
CCN(CC)CCCC(C)Nc1c2ccc(Cl)cc2nc2ccc(OC)cc12 (stereo not given) [Mepacrine] (top concentration tested 50000 nM)	18.1	19.7	21.1	21.4
S=c1[nH]cnc2nc[nH]c12 [Mercaptopurine] (top concentration tested 10000 nM)	0	0	7.54	7.64
Cc1ccc(C(=O)Nc2ccc(Oc3cc4cnn(C)c4cc3-c3cn[nH]c3)c(F)c2)c(=O)n1-c1ccc(F)cc1 [Merestinib] (top concentration tested 1000 nM)	0	0	4.06	1.38
CN(C)C(=N)NC(=N)N [Metformin] (top concentration tested 100000 nM)	0	2.32	0.22	2.41
CN(Cc1cnc2nc(N)nc(N)c2n1)c1ccc(C(=O)N[C@@H](CCC(=O)O)C(=O)O)cc1 [Methotrexate] (top concentration tested 5000 nM)	0	1.17	26.1	17
C[C@H]1C[C@@H]2[C@H]([C@@H](O)C[C@@]3(C)[C@H]2CC[C@]3(O)C(=O)CO)[C@@]2(C)C=CC(=O)C=C12 [Methylprednisolone] (top concentration tested 10000 nM)	0	0	2.04	1.52
CO[C@@H]1[C@H](N(C)C(=O)c2ccccc2)C[C@H]2O[C@]1(C)n1c3ccccc3c3c4c(c5c6ccccc6n2c5c31)C(=O)NC4 [Midostaurin] (top concentration tested 10000 nM)	0	2.79	5.01	4.05
CNC(=O)c1nn(C)c2c1C(C)(C)Cc1cnc(Nc3ccc(N4CCN(C)CC4)cc3)nc1-2 [Milciclib] (top concentration tested 10000 nM)	1	7.5	11.2	15
CO[C@@]12[C@H](COC(N)=O)C3=C(C(=O)C(C)=C(N)C3=O)N1C[C@@H]1N[C@@H]12 [Mitomycin C] (top concentration tested 10000 nM)	0.86	1.95	14.5	5.72
Clc1ccc(C(c2ccccc2Cl)C(Cl)Cl)cc1 (stereo not given) [Mitotane] (top concentration tested 10000 nM)	0	0	0	0
O=C1c2c(O)ccc(O)c2C(=O)c2c(NCCNCCO)ccc(NCCNCCO)c21 [Mitoxantrone] (top concentration tested 1000 nM)	0.1	0.93	10.6	9.78
Nc1ccccc1NC(=O)c1ccc(CNc2nccc(-c3cccnc3)n2)cc1 [Mocetinostat] (top concentration tested 10000 nM)	2.68	6.57	11.5	13.1
N#CCNC(=O)c1ccc(-c2ccnc(Nc3ccc(N4CCOCC4)cc3)n2)cc1 [Momelotinib] (top concentration tested 10000 nM)	3.84	5.09	7.37	5.53
CC1(C)CNc2cc(NC(=O)c3cccnc3NCc3ccncc3)ccc21 [Motesanib] (top concentration tested 10000 nM)	0.35	0.6	2.6	1.53
